Our source for the IC50 values is US5936097A, “4,9-ethano-benzo(F)isoindole derivatives as farnesyl transferase inhibitors” (Rhone-Poulenc Rorer, S.A., priority 1995, dated 1999).

pIC50: −log10 of the molar value.

One assay addresses T1, human farnesyl transferase (Homo sapiens, UniProt P49354+P49356).
T1 construct: human farnesyl transferase purified from THP1 cell cultures; endogenous in cells; host or cells: THP1 cell cultures (enzyme purified from the cells)
The assay can be described thus: inhibition of farnesyl transferase ((3H) farnesyl transfer from (3H) FPP to p21 H-ras). The class given is biochemical.
Settings: not given
The method, boiled down: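 Radiometric transfer of [3H]farnesyl from 4.5 pmol [3H]FPP to 200 pmol p21 H-ras by ~5 ng human enzyme purified from THP1 cells, in 50 mM Tris-HCl, 5 mM MgCl2, 5 mM DTT, 0.2% octyl glucoside, 20 min at 37 °C. Protein precipitated with SDS/TCA in methanol, filter-bound counts measured; IC50 from 9 concentrations, triplicate.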
Consider `O=C(Cc1ccccc1Br)N1C[C@H]2[C@@]3(c4ccccc4)CC[C@H](c4ccccc43)[C@@]2(C(=O)O)C1` (relative stereo) [Example 28, (3aRS, 4SR, 9SR, 9aRS)-4,9-ethano-2-(2-bromophenyl)acetyl-9-phenyl-2,3,3a,4,9,9a-hexahydro-1H-benzo[f]isoindole-3a-carboxylic acid], for which the pIC50 (in general, −log10 of the IC50, conventionally taken in molar units) was 5.52.

Still in this assay, the particulars now being: human farnesyl transferase purified from THP1 cell cultures; p21 H-ras substrate; 20 minutes at 37° C.; 9 concentrations; read-out: in vitro inhibitory activity IC50.
With `COc1ccccc1CC(=O)N1C[C@H]2[C@@]3(c4ccccc4)CC[C@H](c4ccccc43)[C@@]2(C(=O)NCC(=O)O)C1` (relative stereo) [Example 67, N-[(3aRS,4SR,9SR,9aRS)-4,9-ethano-2-(2-methoxy-phenyl)acetyl-9-phenyl-2,3,3a,4,9,9a-hexahydro-1H-benzo[f]isoindol-3a-yl]carbonylglycine], the pIC50 is 6.02.
In the case of `C=C(C(=O)N1C[C@H]2[C@@]3(c4ccccc4)CC[C@H](c4ccccc43)[C@@]2(C(=O)NCc2ccco2)C1)c1ccccc1OC` [Example 94, (3aS,4R,9R,9aS)-N-[(2-furyl)-methyl]-4,9-ethano-2-[(2-methoxyphenyl)prop-2-en-1-oyl]-9-phenyl-2,3,3a,4,9,9a-hexahydro-1H-benzo[f]isoindole-3a-carboxamide], the pIC50 was 6.37.
`COc1ccccc1CC(=O)N1CC2C3(c4ccccc4)CCC(c4ccccc43)C2(C(=O)N[C@@H](CS)C(=O)O)C1` (stereo partly drawn) [Example 53, N-[(3aRS,4SR,9SR,9aRS)-4,9-ethano-2-(2-methoxyphenyl)acetyl-9-phenyl-2,3,3a,4,9,9a-hexahydro-1H-benzo[f]isoindol-3a-yl]carbonyl-L-cysteine]: the pIC50 is 6.23.
Still for that read-out and setting: in the case of `C=C(C(=O)N1C[C@H]2[C@@]3(c4ccccc4)CC[C@H](c4ccccc43)[C@@]2(C(=O)NCc2ccccc2OC)C1)c1ccccc1OC` [Example 82] it was 6.68; in that of `COC(=O)[C@]12CN(C(=O)Cc3ccccc3OC)C[C@H]1[C@@]1(c3ccccc3)CC[C@@H]2c2cc(C=O)ccc21` (relative stereo) [Example 97, methyl ester of (3aRS,4SR,9SR,9aRS)-4,9-ethano-6-formyl-2-[(2-methoxyphenyl)acetyl]-9-phenyl-2,3,3a,4,9,9a-hexahydro-1H-benzo[f]isoindole-3a-carboxylic acid], 5.40.
Still for that read-out and setting: the result for `COc1ccccc1CC(=O)N1C[C@H]2[C@@]3(c4ccccc4)CC[C@H](c4ccccc43)[C@@]2(NC=O)C1` (relative stereo) [Example 11, (3aRS, 4SR, 9SR, 9aRS)-3a-formylamino-4,9-ethano-2-(2-methoxyphenyl)acetyl-9-phenyl-2,3,3a,4,9,9a-hexahydro-1H-benzo[f]isoindole] reads 5.16; that for `COc1ccccc1CC(=O)N1C[C@@H]2[C@]3(c4ccccc4)CC[C@@H](c4ccccc43)[C@]2(C(=O)NO)C1` (racemic) [Example 46, (3aRS,4SR,9SR,9aRS)-4,9-ethano-2-(2-methoxyphenylacetyl)-9-phenyl-2,3,3a,4,9,9a-hexahydro-1H-benzo[f]isoindole-3a-carbohydroxamic acid], 5.90.
